Earlier results as cited in patent publication US20080081052A1, “Topical compositions containing solubilized allantoin and related methods” (priority 2006, published 2008).

Conditions: expressed in g/100 g water @ 25 degree C; no solubilization enhancer

**Q.** Which “solubility of allantoin in water” value does the source give for NC(=O)NC1NC(=O)NC1=O (stereo not shown) [allantoin, (2,5-dioxo-4-imidazolidinyl) urea] here?
**A.** 0.45%
